In patent US20100105864A1, “PROPHYLACTIC OR THERAPEUTIC AGENT FOR DIARRHEA” (priority 2007, published 2010):
Marks after values point to notes of the source that are not given here.

What was measured:
[1] = tested on: Balb/c mice; experiment: Anticancer agent (5-FU)-induced diarrhea model; type: in vivo
Method: To each of Balb/c mice, an anticancer agent was administered to induce diarrhea, and γ-Glu-Val-Gly (hereinafter, referred to as “γEVG”) was studied for its inhibitory effect on diarrhea. To each of 6-week-old Balb/c mice fed with a low protein nutrient diet (4% casein diet) for 1 week, 5-FU (1 mg/animal/day) was intraperitoneally administered for consecutive 3 days. The diarrhea developed around Day 5 after the third administration of the anticancer agent, and the diarrhea appeared in all cases on Day 7. The presence or absence of diarrhea was determined based on the presence or absence of the stool in the tail head area. As the statistical test, a chi-square (χ^2) test for the control group (presence or absence of diarrhea) was employed, and p<0.05 was regarded as significant.
Each administration of 0.01% γEVG was started in free water intake at the same time as the first administration of the anticancer agent, and continued until completion of the experiment.
To each of Balb/c mice, an anticancer agent was administered to induce diarrhea, and a calcium receptor activator (hereinafter, referred to as “CaSR agonist”) was studied for its inhibitory effect on diarrhea. To each of 6-week-old Balb/c mice fed with a low protein nutrient diet (4% casein diet) for 1 week, 5-FU (1 mg/animal/day) was intraperitoneally administered for consecutive 3 days. The diarrhea developed around Day 5 after the third administration of the anticancer agent, and the diarrhea appeared in all cases on Day 7. The presence or absence of diarrhea was determined based on the presence or absence of the stool in the tail head area. As the statistical test, a chi-square (χ^2) test for the control group (presence or absence of diarrhea) was employed, and p<0.05 was regarded as significant.
The administration of the CaSR agonist was started in free water intake at the same time as the administration of the low protein nutrient diet, and continued until completion of the experiment.

[2] = tested on: rat large intestine loop; experiment: Fluid absorption in rat large intestine loop method (PGE2-stimulated); type: in vivo, rats; settings: injected into loop 30 minutes after PGE2 i.p.; measured after 1 hour
Method: The cecum and large intestine were extirpated from the abdomen of each of male SD (IGS) rats under pentobarbital anesthesia, and the site 5 cm away from the area just under the cecum was ligated to form a large intestine loop Immediately after the loop had been formed, PGE2 (4 μg/ml/kg, SIGMA) was intraperitoneally administered, and after 30 minutes, a medicament, which had been dissolved in 2 ml of Tyrode's solution (NaCl: 136.9 mM, KCl: 2.7 mM, CaCl2.2H2O: 1.8 mM, MgCl2.6H2O: 1.04 mM, NaH2PO4.2H2O: 0.04 mM, NaH2PO4.2H2O: 0.04 mM, glucose: 5.55 mM, NaHCO3: 11.9 mM), was injected into the prepared loop (the medicament solution was adjusted so that the pH would be 6.5 to 7.5). As a control, Tyrode's solution free of any medicament (vehicle) was administered. After 1 hour, the loop weight, the loop weight after solution removal, and the loop area were measured to calculate a solution weight per unit area remaining in the loop.
The remaining solution amount per unit area was calculated with the following equation:
Remaining solution amount per unit area(g/cm^2)=(Loop weight−Loop weight after solution removal)/Loop area.
The fluid absorption was evaluated by calculating an inhibitory rate from the following equation:
Inhibitory rate(%)=100−(Remaining solution amount per unit area under drug administration−Remaining solution amount per unit area in base(average))/(Remaining solution amount per unit area under vehicle administration(average)−Remaining solution amount per unit area in base(average))×100.
(Base=case where no stimulation is given (no treatment with PGE2))

C[C@@H](NCCCc1cccc(C(F)(F)F)c1)c1cccc2ccccc12 [cinacalcet, (R)—N-(3-(3-(trifluoromethyl)phenyl)propyl)-1-(1-naphthyl)ethylamine]
mice that did not exhibit the diarrhea symptom ([1]; 0.05% administration group, free water intake from start of low protein diet, control all 9/9 with diarrhea): 2 out of 5 | Ratio of individuals that developed diarrhea ([1]; 0.5% in free water intake from start of low protein diet, control 9/9, p < 0.05 chi-square): 3/5* | fluid absorption (inhibitory rate from remaining solution amount per unit area) [2]: promoted fluid absorption
